Test results as given in patent publication US8003613B2, “Methods and compositions for inducing apoptosis” (University of Florida Research Foundation, Inc., priority 2003, dated 2011).
Read-outs that look alike come from different tables or passages of the source. Where no end group is shown, it is not given here.

Tests used:
VEGFR-3 = conditions: no method given; cited from earlier work
[1] = system: MCF10A normal breast cells; test: Apoptosis assay, MCF10A; format: cell-based, human
Protocol: (§1) Visualization and penetration of Peptide-35 into breast cancer cells was accomplished by coupling the peptide to FITC and using a TAT penetration sequence. Apoptosis was measured using the Elisa Plus cell death detection assay after cells were treated with drug for 24 hours. Apoptosis was further confirmed by the Hoechst assay.
(§2) Cells were treated with drug for 24 hours and then harvested. Hoechst 33342 was added and the specimens were mounted on glass coverslips. The slides were viewed under the microscope for apoptotic nuclei. The percent apoptosis was calculated by dividing the number of apoptotic cells by the total number of cells (300).

[2] = system: BT474, BT20, and MCF7 breast cancer cells; test: Displacement of FAK from focal adhesions, rounding and detachment in breast cancer cells; format: cell-based, human; conditions: peptide coupled to TAT-FITC
Protocol: as §1
(§3) Peptide-35 and AV3 (SEQ ID NO: 3) were coupled to a TAT sequence (YGRKKRRQRRR; SEQ ID NO: 5) to allow cellular penetration. Peptide-35 was also coupled to FITC for visualization of the peptide inside cells. Anti-FAK, anti-GST, anti-VEGFR-3, and anti-tubulin antibodies were used for immunoprecipitation and western blotting.
(§4) Cells were plated onto coverslips in six-well culture plates in medium for 24 hours and stained with anti-FAK and anti-VEGFR-3 antibodies and visualized for co-localization.

cancer cells = test: Apoptosis in cancer cell lines; format: cell-based, human; conditions: different cancer cell lines
Protocol: as §1, §2

FAK-CD = target: T1, FAK-CD (Homo sapiens, UniProt Q05397); test: Phage display / phage overlay binding to FAK-CD; conditions: Western blot/phage overlay
T1 construct: made in house
Text: Peptides that bind FAK were isolated by phage display techniques. Baculovirus FAK-CD was the target protein and peptides were isolated from a phage library (New England Biolabs). After three rounds of panning, recovered phages were sequenced to identify potential peptides that bind FAK. Western-blot analysis and phage overlay were used to confirm the binding of these peptides to FAK. Peptide binding partners to FAK-CD were isolated by phage display. Baculoviral FAK-CD was used as a target and was coated to a plate and peptides were isolated from a phage library containing different 12-amino acids (New England Biolabs). After three rounds of panning, recovered phages were sequenced to identify potential peptides that bind FAK. […] Pure protein (4 μg) with loading buffer was boiled for 10 min and resolved by SDS-PAGE. Proteins were transferred to polyvinylidene difluoride membrane, probed with phage-35, and detected by chemiluminescence (Perkin-Elmer Life Sciences, Inc.).

[3] = system: MCF10A normal breast cells; test: Detachment assay, MCF10A; format: cell-based, human; conditions: 6 hours treatment
Protocol: (§5) Detached and attached cells after drug treatment for 6 hours cells were counted by hemocytometer. The percent detachment was calculated by dividing the number of detached cells by the total number of cells.

normal MCF10A cells = test: Displacement of FAK from focal adhesions, rounding and detachment in normal breast cells; format: cell-based, human; conditions: peptide coupled to TAT-FITC
Protocol: as §1, §3, §4

[4] = system: BT474 breast cancer cells; test: Detachment assay, BT474; format: cell-based, human; conditions: 6 hours treatment
Protocol: as §5

[5] = system: BT474 breast cancer cells; test: Apoptosis assay, BT474; format: cell-based, human; conditions: 24 hours treatment, confirmed by Hoechst assay
Protocol: as §1, §2

[6] = target: T2, chicken FAT, FAK C-terminal domain (Gallus gallus, UniProt Q00944); test: NMR analysis of peptide binding to FAT domain; conditions: preliminary NMR analysis
T2 sequence (Q00944 915-1046 limits assumed): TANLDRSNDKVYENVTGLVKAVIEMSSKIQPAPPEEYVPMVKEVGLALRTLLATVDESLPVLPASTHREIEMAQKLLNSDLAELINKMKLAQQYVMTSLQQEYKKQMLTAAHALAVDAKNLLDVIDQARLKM
Protocol: Structural analysis of VEGFR-3 peptide binding to the FAT domain of FAK is performed. Structural analysis is by nuclear magnetic resonance (NMR) spectroscopy. The solvent accessible area of the FAT-domain is predominantly hydrophilic with hydrophobic patches located on the helix 1-helix 4 face and the helix 2-helix 3 face. The hydrophobic patches may be involved in paxillin binding interactions. Results from these analyses indicate that NMR approaches will be successful in delineating detailed binding interactions between the inhibitor peptide and the FAT domain.
The site of peptide binding and is determined and specificity of binding is analyzed. Different scrambled peptides are synthesized to analyze the specificity of NMR assay. Different mutant peptides are synthesized to determine specific amino-acids involved in this interaction.

IMR neuroblastoma cells [7] = test: Apoptosis assay, IMR neuroblastoma; format: cell-based; conditions: IMR neuroblastoma cells with high VEGFR-3; peptide conjugated with TAT
Protocol: as §2

[8] = system: Mouse Fibroblast, FAK/FAK+; test: Detachment assay, mouse fibroblasts; format: cell-based; conditions: FAK+ compared with FAK-deficient
Protocol: BT474 cells were maintained in RPMI 1640 with 10% fetal bovine serum, 10 μg/ml insulin, and 2 mM L-glutamine. Mouse embryonic fibroblasts were maintained in DMEM with 10% FBS, Amphotericin B, and NEAA. HEK293 human embryonic kidney cells were maintained in DMEM with 10% FBS, and 2 mM L-glutamine. All cells were incubated at 37° C. in 5% CO2. Detached and attached cells after drug treatment for 6 hours cells were counted by hemocytometer. The percent detachment was calculated by dividing the number of detached cells by the total number of cells.

IMR neuroblastoma cells [9] = test: Detachment assay, IMR neuroblastoma; format: cell-based; conditions: IMR neuroblastoma cells with high VEGFR-3; peptide conjugated with TAT
Protocol: as §5

T1 sequence (Q05397 693-1052 limits assumed): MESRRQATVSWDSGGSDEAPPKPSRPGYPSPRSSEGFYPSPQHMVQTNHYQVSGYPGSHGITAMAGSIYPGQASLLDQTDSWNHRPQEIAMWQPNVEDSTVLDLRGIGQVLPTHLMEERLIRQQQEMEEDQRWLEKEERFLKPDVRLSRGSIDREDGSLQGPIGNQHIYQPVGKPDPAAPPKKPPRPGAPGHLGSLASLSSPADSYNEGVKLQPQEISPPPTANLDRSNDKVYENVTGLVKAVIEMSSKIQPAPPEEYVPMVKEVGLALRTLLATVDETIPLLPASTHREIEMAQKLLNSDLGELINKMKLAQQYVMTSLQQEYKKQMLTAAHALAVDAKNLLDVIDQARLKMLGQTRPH

Compound: CC(C)(C)n1nc(-c2ccc(Cl)cc2)c2c(N)ncnc21 [PP2]
- inhibition of VEGFR-3 phosphorylation (VEGFR-3): inhibited

Compound: WHWQWTPWSIQP (also: TAT and FITC conjugated; listed as Homo sapiens) [Peptide-35, coupled to TAT (and FITC) for cell penetration]
- apoptosis [1]: not in MCF10A normal breast cells
- apoptosis ([1]; listed as peptide 35): not observed
- displacement of FAK from focal adhesions, degradation of FAK, rounding, detachment [2]: cause displacement of FAK from focal adhesions, degradation of FAK, rounding, and detachment
- displacement of FAK from focal adhesions, degradation of FAK, rounding, detachment ([2]; listed as peptide-35): caused displacement of FAK from focal adhesions
- apoptosis (with detachment / loss of focal adhesions) in cancer cells (cancer cells): caused loss of focal adhesions and apoptosis
- apoptosis (with detachment / loss of focal adhesions) in cancer cells (cancer cells; listed as peptide 35): induces detachment and apoptosis
- binding to FAK-CD (C-terminal part of FAK) (FAK-CD): binds to specific sequences of FAK-CD
- binding to FAK-CD (C-terminal part of FAK) (FAK-CD; listed as peptide 35): binds to the C-terminal part of FAK and FAT domain
- detachment [3]: not in MCF10A normal breast cells
- detachment ([3]; listed as peptide-35): minimal detachment
- displacement of FAK from focal adhesions, degradation of FAK, rounding, detachment (normal MCF10A cells): not in normal MCF10A cells
- displacement of FAK from focal adhesions, degradation of FAK, rounding, detachment (normal MCF10A cells; listed as peptide-35): not in normal MCF10A breast cells
- detachment [4]: caused detachment
- detachment ([4]; listed as peptide-35): higher level of detachment
- apoptosis [5]: caused detachment and apoptosis
- apoptosis ([5]; listed as peptide-35): higher level of apoptosis

Compound: HPWQWTISWPQW (listed as Homo sapiens) [scrambled peptide 35, control peptide, scrambled peptide 35, reference compound]
- displacement of FAK from focal adhesions, degradation of FAK, rounding, detachment [2]: not
- apoptosis (with detachment / loss of focal adhesions) in cancer cells (cancer cells): not observed
- detachment [3]: minimal detachment

Compound: WHWRPWTPCKMF (also: TAT peptide conjugated; listed as Homo sapiens) [AV3, synthesized peptide homologous to twelve amino-acids of VEGFR-3; conjugated with TAT peptide for penetration into cells]
- apoptosis [1]: not observed
- apoptosis (with detachment / loss of focal adhesions) in cancer cells (cancer cells): induces detachment and apoptosis
- apoptosis (with detachment / loss of focal adhesions) in cancer cells (cancer cells; listed as VEGFR-3 (AV-3) peptide): caused apoptosis in cancer cells similar to peptide 35
- binding to FAT domain by NMR [6]: detected binding
- apoptosis (IMR neuroblastoma cells [7]): increased detachment and apoptosis
- detachment [8]: Mouse Fibroblast, FAK/FAK+. Greater
- detachment (IMR neuroblastoma cells [9]): increased detachment
